Measurements: US8802694B2, “3,6-diazabicyclo[3.1.1]heptanes as neuronal nicotinic acetycholine receptor ligands” (Targacept, Inc., priority 2009, dated 2014)
pKi: −log10 of the molar value. Read-outs that look alike come from different tables or passages of the source.

Tests used:
Rat α4β2 = target: T1, Rat α4β2 (Rattus norvegicus, UniProt P09483+P12390); test: Competition binding to rat α4β2 receptors in rat cortical membranes
T1 construct: Rat cortices were obtained from Analytical Biological Services; tissue Analytical Biological Services, Incorporated (ABS, Wilmington, Del.); host or cells: rat cortex (female Sprague-Dawley)
Method: Preparation of membranes from rat tissues. Rat cortices were obtained from Analytical Biological Services, Incorporated (ABS, Wilmington, Del.). Tissues were dissected from female Sprague-Dawley rats, frozen and shipped on dry ice. Tissues were stored at −20° C. until needed for membrane preparation. […] The resulting homogenate was centrifuged at 40,000 g for 20 minutes at 4° C. and the resulting pellet was resuspended in 20 volumes of ice-cold water. After 60-minute incubation at 4° C., a new pellet was collected by centrifugation at 40,000 g for 20 minutes at 4° C. The final pellet was resuspended in preparative buffer and stored at −20° C. On the day of the assay, tissue was thawed, centrifuged at 40,000 g for 20 minutes and then resuspended in PBS (Dulbecco's Phosphate Buffered Saline, Life Technologies, pH 7.4) to a final concentration of 2-3 mg protein/mL. Protein concentrations were determined using the Pierce BCA Protein Assay kit (Pierce Biotechnology, Rockford, Ill.), with bovine serum albumin as the standard.
Competition binding to receptors in membrane preparations. […] In brief, membranes were reconstituted from frozen stocks (approximately 0.2 mg protein) and incubated for 2 h on ice in […] assay buffer (PBS) in the presence of competitor compound (0.001 nM to […]) and radioligand. [^3H]-nicotine (L-(−)-[N-methyl-3H]-nicotine, 69.5 Ci/mmol, Perkin-Elmer Life Sciences) was used for human α4β2 binding studies. [^3H]-epibatidine (52 Ci/mmol, Perkin-Elmer Life Sciences) was used for binding studies at the other receptor subtypes. […] Filters were washed 3 times and the radioactivity retained was determined by liquid scintillation counting.
Binding data analysis. Binding data were expressed as percent total control binding. Replicates for each point were averaged and plotted against the log of drug concentration.

Human α4β2 = target: T2, Human α4β2 (Homo sapiens, UniProt P17787+P43681); test: Competition binding to human α4β2 receptors in membranes of SH-EP1/human α4β2 cells ([3H]-nicotine)
T2 construct: host or cells: SH-EP1

α6β3β4α5 = target: T3, α6β3β4α5 (Homo sapiens, UniProt P30926+Q15825); test: Competition binding to α6β3β4α5 receptors in membranes of SH-EP1/α6β3β4α5 cells ([3H]-epibatidine); conditions: membrane competition binding
T3 construct: host or cells: SH-EP1

[1] = Rat α4β2 Ki, rat cortex membranes
[2] = Human α4β2 Ki, membrane competition binding
[3] = membrane competition binding, read-out: Human α4β2 Ki
[4] = rat cortex membranes, read-out: Rat α4β2 Ki

SMILES | pKi (Rat α4β2; [1]) | pKi (Human α4β2; [2]) | pKi (α6β3β4α5; read-out: α6β3β4α5 Ki) | pKi (α6β3β4α5; α6β3β4α5 Ki) | pKi (Human α4β2; [3]) | pKi (Rat α4β2; [4]) | pKi (Rat α4β2; read-out: Rat α4β2 Ki, rat cortex membranes) | pKi (Human α4β2; read-out: Human α4β2 Ki, membrane competition binding)
O=C(c1cnco1)N1CC2CC(C1)N2 | 9.74 | 7.55 | 4.77 |  |  |  |  | 
O=C(C1CC1(F)F)N1CC2CC(C1)N2 (stereo not drawn) | 8.06 | 8.21 |  | 6.29 |  |  |  | 
O=C(CC1CCCC1)N1C2CNCC1C2 | 7.00 |  | 6.44 |  | 6.66 |  |  | 
O=C(CC1CCOC1)N1C2CNCC1C2 (stereo not drawn) |  |  | 5.80 |  | 6.48 | 6.89 |  | 
CC1CC1C(=O)N1CC2CC(C1)N2 (stereo not drawn) | 8.74 | 8.30 |  | 6.92 |  |  |  | 
O=C(CSc1ccc(Cl)c(Cl)c1)N1CC2CC(C1)N2 | 7.80 | 8.64 |  | 7.00 |  |  |  | 
O=C(CSc1ccc(O)cc1)N1CC2CC(C1)N2 | 8.07 | 7.96 | 6.92 |  |  |  |  | 
O=C(NCc1ccccc1)N1CC2CC(C1)N2 |  |  | 6.40 |  | 6.57 | 6.70 |  | 
O=C(NCc1ccc(Cl)cc1)N1CC2CC(C1)N2 | 8.40 |  | 6.68 |  | 6.96 |  |  | 
O=C(NCc1ccc(Cl)cc1Cl)N1CC2CC(C1)N2 | 7.62 | 7.32 |  | 7.42 |  |  |  | 
O=C(NCc1ccc(Cl)c(Cl)c1)N1CC2CC(C1)N2 | 7.15 | 7.05 | 6.92 |  |  |  |  | 
CCCC(=O)N1CC2CC(C1)N2 | 8.39 | 7.92 |  | 6.54 |  |  |  | 
O=C(CCC(F)(F)F)N1CC2CC(C1)N2 | 7.20 | 7.13 | 6.01 |  |  |  |  | 
C/C=C/CCC(=O)N1CC2CC(C1)N2 | 7.60 | 7.43 | 6.27 |  |  |  |  | 
O=C(CC1CCC1)N1CC2CC(C1)N2 | 7.47 | 7.31 | 6.36 |  |  |  |  | 
CC1(C)CC1C(=O)N1CC2CC(C1)N2 (stereo not drawn) | 8.17 | 8.28 |  | 6.92 |  |  |  | 
CCC1(CC)CC1C(=O)N1CC2CC(C1)N2 (stereo not drawn) | 7.16 | 7.15 | 6.33 |  |  |  |  | 
C[C@@H]1C(C(=O)N2CC3CC(C2)N3)[C@@H]1C (stereo partly drawn) | 7.52 | 7.36 | 6.77 |  |  |  |  | 
O=C([C@@H]1C[C@H]1c1ccccc1)N1CC2CC(C1)N2 | 8.36 | 8.33 |  | 7.19 |  |  |  | 
O=C(C1CC12CCC2)N1CC2CC(C1)N2 (stereo not drawn) | 8.92 | 8.59 |  | 7.30 |  |  |  | 
O=C(C1CC12CCCC2)N1CC2CC(C1)N2 (stereo not drawn) | 7.51 | 7.59 |  | 7.02 |  |  |  | 
O=C(C1C2CCCCC21)N1CC2CC(C1)N2 (stereo not drawn) | 7.52 | 7.11 | 6.55 |  |  |  |  | 
CCC[C@H]1C[C@H]1C(=O)N1CC2CC(C1)N2 |  | 7.36 | 6.66 |  |  | 6.89 |  | 
CC1CC(C(=O)N2CC3CC(C2)N3)C1 (stereo not drawn) | 7.66 | 7.64 | 6.42 |  |  |  |  | 
O=C(C1CC(F)(F)C1)N1CC2CC(C1)N2 | 7.72 | 7.80 | 6.43 |  |  |  |  | 
O=C([C@@H]1C[C@@H]2C=C[C@H]1C2)N1CC2CC(C1)N2 |  |  | 5.89 |  | 6.80 | 6.68 |  | 
CCCC(=O)N1C2CNCC1C2 | 8.29 | 8.00 | 6.64 |  |  |  |  | 
O=C(CCC(F)(F)F)N1C2CNCC1C2 | 7.14 |  | 5.82 |  | 6.74 |  |  | 

SMILES | pKi (Rat α4β2; [1]) | pKi (Human α4β2; [2]) | pKi (α6β3β4α5; read-out: α6β3β4α5 Ki) | pKi (α6β3β4α5; α6β3β4α5 Ki) | pKi (Human α4β2; [3]) | pKi (Rat α4β2; [4]) | pKi (Rat α4β2; read-out: Rat α4β2 Ki, rat cortex membranes) | pKi (Human α4β2; read-out: Human α4β2 Ki, membrane competition binding)
C/C=C/CCC(=O)N1C2CNCC1C2 | 7.82 | 7.28 | 6.40 |  |  |  |  | 
O=C(CC1CCC1)N1C2CNCC1C2 | 7.52 | 7.28 | 6.44 |  |  |  |  | 
CC1(C)CC1C(=O)N1C2CNCC1C2 (stereo not drawn) | 7.35 | 7.12 | 6.10 |  |  |  |  | 
O=C([C@@H]1C[C@H]1c1ccccc1)N1C2CNCC1C2 | 7.29 | 7.52 | 6.46 |  |  |  |  | 
O=C(C1CC12CCC2)N1C2CNCC1C2 (stereo not drawn) | 7.49 | 7.42 | 6.47 |  |  |  |  | 
CC1CC(C(=O)N2C3CNCC2C3)C1 (stereo not drawn) | 7.24 | 7.31 | 6.11 |  |  |  |  | 
O=C(C1CC(F)(F)C1)N1C2CNCC1C2 | 7.80 | 7.27 | 6.29 |  |  |  |  | 
O=C(C1CC2C=CC1C2)N1C2CNCC1C2 (stereo not drawn) |  |  | 6.05 |  | 6.70 | 6.42 |  | 
C[C@@H]1C[C@H]1C(=O)N1C2CNCC1C2 | 7.30 | 8.04 | 5.77 |  |  |  |  | 
C[C@H]1C[C@H]1C(=O)N1C2CNCC1C2 |  | 8.02 | 5.74 |  |  | 6.74 |  | 
O=C([C@@H]1C[C@@H]1F)N1CC2CC(C1)N2 | 9.07 | 8.74 |  | 6.55 |  |  |  | 
O=C([C@@H]1C[C@H]1F)N1CC2CC(C1)N2 | 9.27 |  |  | 7.04 | 9.00 |  |  | 
C[C@H]1C[C@H]1C(=O)N1CC2CC(C1)N2 | 9.41 | 8.74 |  | 7.24 |  |  |  | 
C[C@@H]1C[C@H]1C(=O)N1CC2CC(C1)N2 | 10.10 |  |  | 7.02 | 9.00 |  |  | 
[2H]C1([2H])C([2H])([2H])C1([2H])C(=O)N1CC2CC(C1)N2 | 9.62 | 9.31 |  | 6.92 |  |  |  | 
O=C(CC(F)(F)F)N1CC2CC(C1)N2 [3-(2,2,2-trifluoroethyl)carbonyl-3,6-diazabicyclo[3.1.1]heptane] | 7.60 | 7.96 | 5.77 |  |  |  |  | 
O=C(c1ccc(Br)o1)N1CC2CC(C1)N2 [3-(2-bromofuran-5-yl)carbonyl-3,6-diazabicyclo[3.1.1]heptane] | 7.08 | 7.60 | 5.74 |  |  |  |  | 
O=C(c1cc(Br)co1)N1CC2CC(C1)N2 [3-(3-bromofuran-5-yl)carbonyl-3,6-diazabicyclo[3.1.1]heptane] | 7.10 | 7.46 | 5.57 |  |  |  |  | 
O=C(c1occc1Cl)N1CC2CC(C1)N2 [3-(3-chlorofuran-2-yl)carbonyl-3,6-diazabicyclo[3.1.1]heptane] |  |  | 5.62 |  |  |  | 7.25 | 8.10
O=C(C1CC1)N1CC2CC(C1)N2 [3-cyclopropylcarbonyl-3,6-diazabicyclo[3.1.1]heptane] | 8.64 |  |  | 6.85 | 8.52 |  |  | 
CC(C)C(=O)N1CC2CC(C1)N2 [3-isopropylcarbonyl-3,6-diazabicyclo[3.1.1]heptane] | 7.64 | 6.66 |  | 6.08 |  |  |  | 
O=C([C@H]1C[C@H]1F)N1CC2CC(C1)N2 [drawing 110] | 8.96 | 8.28 |  | 6.28 |  |  |  | 
O=C([C@H]1C[C@@H]1F)N1CC2CC(C1)N2 [drawing 111] | 9.09 | 8.35 |  | 6.92 |  |  |  | 
C[C@H]1C[C@@H]1C(=O)N1CC2CC(C1)N2 [drawing 157] | 7.00 | 8.12 |  | 5.59 |  |  |  | 
O=C([C@H]1C[C@H]1F)N1CC2CC(C1)N2 [drawing 163] | 9.28 |  |  | 6.82 | 8.96 |  |  | 
O=C([C@H]1C[C@@H]1F)N1CC2CC(C1)N2 [drawing 165] | 8.80 | 8.34 |  | 6.11 |  |  |  | 
C[C@H]1C[C@@H]1C(=O)N1CC2CC(C1)N2 [drawing 170] | 8.32 | 7.89 |  | 5.77 |  |  |  | 
